# “Also recorded” adds a separate entry of the source. Read-outs that look alike come from different tables or passages of the source. Marks after values point to notes of the source that are not given here.
# Tests used:
# human ER = target: T1, human ER (Homo sapiens, UniProt P03372); experiment: ER-CALUX assay, estrogenic activity, U2OS-luc cells; type: cell-based; set-up: host or cells: human U2OS-luc (osteoblastic osteosarcoma) cells; conditions: for EC50 / REPmol (EC50): present study; for EC50: 24 h exposure; for REPmol (EC50): molar relative potency to E2, EC50-based
# T1 sequence (P03372 1-595): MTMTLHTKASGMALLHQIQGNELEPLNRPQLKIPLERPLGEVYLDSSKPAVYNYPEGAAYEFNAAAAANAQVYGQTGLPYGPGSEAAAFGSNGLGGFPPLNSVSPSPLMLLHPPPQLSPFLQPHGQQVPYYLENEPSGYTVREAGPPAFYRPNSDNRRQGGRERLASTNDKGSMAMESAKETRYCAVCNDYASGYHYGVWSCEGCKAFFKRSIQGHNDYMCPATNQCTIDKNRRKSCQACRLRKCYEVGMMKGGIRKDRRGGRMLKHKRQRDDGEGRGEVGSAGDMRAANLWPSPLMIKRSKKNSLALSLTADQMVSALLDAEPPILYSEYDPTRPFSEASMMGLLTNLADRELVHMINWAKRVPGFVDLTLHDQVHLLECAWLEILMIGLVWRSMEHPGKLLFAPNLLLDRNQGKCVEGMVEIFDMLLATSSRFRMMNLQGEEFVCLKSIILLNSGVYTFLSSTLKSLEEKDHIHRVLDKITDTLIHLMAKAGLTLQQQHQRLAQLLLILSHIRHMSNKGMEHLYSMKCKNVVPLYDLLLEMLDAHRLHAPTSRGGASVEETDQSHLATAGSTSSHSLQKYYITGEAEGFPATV
# human AR = target: T2, human AR (Homo sapiens, UniProt P10275); experiment: AR-CALUX assay, antiandrogenic (AR antagonistic) activity, U2OS-luc cells; type: cell-based; set-up: host or cells: human U2OS-luc (osteoblastic osteosarcoma) cells; conditions: for REPmol (IC25): molar relative potency to flutamide, IC25-based
# T2 sequence (P10275 1-920): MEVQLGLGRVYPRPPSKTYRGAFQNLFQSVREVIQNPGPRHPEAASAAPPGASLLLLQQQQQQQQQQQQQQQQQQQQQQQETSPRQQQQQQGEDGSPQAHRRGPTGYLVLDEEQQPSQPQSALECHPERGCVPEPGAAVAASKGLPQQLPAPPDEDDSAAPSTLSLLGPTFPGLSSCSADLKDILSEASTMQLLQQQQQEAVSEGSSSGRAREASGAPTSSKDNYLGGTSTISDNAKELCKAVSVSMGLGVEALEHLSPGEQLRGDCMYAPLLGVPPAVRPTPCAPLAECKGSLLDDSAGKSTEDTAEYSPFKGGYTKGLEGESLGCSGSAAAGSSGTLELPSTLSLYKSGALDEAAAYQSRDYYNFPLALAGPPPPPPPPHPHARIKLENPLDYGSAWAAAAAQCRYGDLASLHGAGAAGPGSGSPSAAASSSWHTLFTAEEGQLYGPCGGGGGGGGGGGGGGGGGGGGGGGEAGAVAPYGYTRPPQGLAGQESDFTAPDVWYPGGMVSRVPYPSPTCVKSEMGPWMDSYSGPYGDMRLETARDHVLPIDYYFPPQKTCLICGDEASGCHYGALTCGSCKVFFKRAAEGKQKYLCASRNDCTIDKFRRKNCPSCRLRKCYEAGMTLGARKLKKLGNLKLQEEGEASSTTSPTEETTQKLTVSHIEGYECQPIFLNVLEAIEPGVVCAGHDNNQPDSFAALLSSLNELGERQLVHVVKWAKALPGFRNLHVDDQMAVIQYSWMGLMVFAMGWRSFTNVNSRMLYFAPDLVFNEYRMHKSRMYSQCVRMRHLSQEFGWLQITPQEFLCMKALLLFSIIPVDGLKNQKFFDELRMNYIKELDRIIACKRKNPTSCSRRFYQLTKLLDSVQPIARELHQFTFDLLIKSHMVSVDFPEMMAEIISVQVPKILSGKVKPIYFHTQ
# Description: The AR- and ER-CALUX assays for the polycyclic aromatic compounds were evaluated according to previously described methods, which used human U2OS-luc cells developed by BioDetection Systems b.v. (Amsterdam, The Netherlands). The cells are transfected stably with human AR and ER, respectively, and a luciferase reporter gene under their respective steroid receptor response elements. […] They were incubated at 37 °C in a humidified atmosphere containing 5% carbon dioxide. […] The medium was then removed, and the cells were lysed. A solution of luciferin was then added, and the luminescence intensity was measured with an ARVO™ X3 luminometer from PerkinElmer (Waltham, MA, USA). A sigmoid dose–response curve for a chemical was fitted to the Hill equation given by Equation (1) using SigmaPlot 11.0 from Systat Software Inc. (San Jose, CA, USA). y = min + (max − min)/(1 + (a1/x)^a^2)(1) where, y and x are the measured luciferase induction level and compound concentration, respectively. […] The REP values in mol base were obtained by dividing the ICs or ECs of the standard by the ICs or ECs of target compound, respectively.
# All measurements were conducted in triplicate wells. They were repeated twice and trice in the AR- and ER-CALUX assays, respectively, for each concentration in dose–response curve. […] Cell viability was confirmed using 3-(4,5-dimethylthiazol-2-yl)-2,5-diphenyltetrazolium bromide (MTT) assay. If the cell viability was <80% in the positive control, the corresponding exposure dose was considered cytotoxic and excluded from the calculation.
# ER [1] = test system: ER; set-up: method as in Boonen et al. [33]; conditions: previous study; relative to E2; ref Boonen et al. [33]; cited from earlier work
# AR [2] = conditions: previous study, cited from earlier work
# AR [3] = test system: AR; set-up: method as in Okamura et al. [22]; key: +, positive; conditions: cited from earlier work
# ER [4] = conditions: cited from earlier work
# ER [5] = test system: ER; set-up: method as in Pieterse et al. [30]; conditions: previous study; relative to E2; ref Pieterse et al. [30]; cited from earlier work
# [6] = present study, 24 h exposure with 100 pM DHT (EC50 level)
# [7] = previous study, ref Okamura et al. [22]
# [8] = relative to flutamide, ref Alvarez-Muñoz et al. [28]
# [9] = relative to flutamide, ref Pieterse et al. [30]
molecule,measurement,setting,value
"O=[N+]([O-])c1cc([N+](=O)[O-])c2ccc3cccc4ccc1c2c43 [1,3-DNPy, 1,3-dinitropyrene]",EC50,human ER,U (< 10% response of 1 nM E2)
same,REPmol (EC50),human ER,U (< 10% response of 1 nM E2)
same,IC50,human AR,210 nM
same,inhibition of AR-mediated luciferase activity,"human AR; coexposure to DHT at 10 nM (100 × EC50), compound at 3 μM",33%
same,mode of AR inhibition,human AR; from coexposure to 10 nM DHT,noncompetitive
same,IC25,human AR; [6],130 nM
same,REPmol (IC25),human AR; present study,0.88
"O=[N+]([O-])c1ccc2ccc3ccc([N+](=O)[O-])c4ccc1c2c34 [1,8-DNPy, 1,8-dinitropyrene]",REPmol (EC50),human ER,U (< 10% response of 1 nM E2)
same,REPmol (IC25),human AR; present study,0.91
"O=[N+]([O-])c1cc2c3ccccc3ccc2c2ccccc12 [6-NChr, 6-nitrochrysene]",IC25,human AR; [6],39 nM
same,REPmol (IC25),human AR; present study,3.2
same,IC50,human AR; read-out: IC50,88 nM
"O=[N+]([O-])c1ccc2c(c1)-c1cccc3cccc-2c13 [8-NFA, 8-Nitrofluoranthene]",IC25,human AR; [6],98 nM
same,REPmol (IC25),human AR; present study,1.3
same,IC50,human AR; read-out: IC50,270 nM
"c1ccc2cc3ccccc3cc2c1 [Ant, abthracene]","REPmol, VM7",ER [1],8.3 × 10^−7
same,"REPmol, U2OS","AR [2]; relative to flutamide, ref Marin-Kuan et al. [29]",0.2 ^d
"O=C1c2ccccc2-c2cccc3cccc1c23 [BAO, 7H-benz[de]anthracen-7-one]",EC50,human ER; read-out: EC50,16000 nM
same,"REPmol, U2OS","AR [2]; relative to flutamide, ref Weiss et al. [34]",0.014 ^c
"O=C1c2cccc3ccc4ccc5cccc1c5c4c23 [BPO, 6H-benzo[cd]pyren-6-one]",EC50,human ER,U (key: U: < 10% response of 1 nM E2; nd: not detected)
same,REPmol (EC50),human ER,U (key: U: < 10% response of 1 nM E2; nd: not detected)
same,antiandrogenic activity (in words),human AR; present study,not observed
"c1cc2ccc3ccc4ccc5cccc6c(c1)c2c3c4c56 [BPe, Benzo[ghi]perylene]","antiandrogenic activity, PC3",AR [3],+
"O=C1c2ccccc2-c2ccc3ccccc3c21 [B[a]FO, 11H-Benzo[a]fluoren-11-one]",EC50,human ER; read-out: EC50,4800 nM
same,IC25,human AR; [6],300 nM
same,REPmol (IC25),human AR; present study,0.43
same,IC50,human AR; read-out: IC50,670 nM
"c1ccc2c(c1)-c1cccc3c1c-2cc1ccccc13 [B[b]FA, benzo[b]fluoranthene]","antiandrogenic activity, PC3",AR [3]; [7],+
"O=C1c2ccccc2-c2cc3ccccc3cc21 [B[b]FO, 11H-benzo[b]fluoren-11-one]",EC50,human ER; read-out: EC50,4800 nM
same,IC25,human AR; [6],150 nM
same,REPmol (IC25),human AR; present study,0.81
same,IC50,human AR; read-out: IC50,530 nM
"c1ccc2c(c1)ccc1ccc3ccccc3c12 [B[c]Phe, Benzo[c]phenanthrene]",activation (level of the response to 1 nM E2),human ER; at 8 μM,27% activation at 8 μM
same,IC25,human AR; [6],110 nM
same,REPmol (IC25),human AR; present study,1.0
same,IC50,human AR; read-out: IC50,370 nM
"c1ccc2c(c1)c1cccc3ccc4cccc2c4c31 [B[e]P, benzo[e]pyrene]",EC50,human ER,U (key: U: < 10% response of 1 nM E2; nd: not detected)
same,REPmol (EC50),human ER,U (key: U: < 10% response of 1 nM E2; nd: not detected)
same,inhibition at 10 µM,"human AR; at 10 μM, maximum soluble concentration, read-out: inhibition of AR activation",> 15%
same,antiandrogenic activity (in words),human AR; present study,partial antagonist
same,"antiandrogenic activity, PC3",AR [3]; [7],+
"c1ccc2c3c(ccc2c1)-c1cccc2cccc-3c12 [B[j]FA, benzo[j]fluoranthene]",activation (level of the response to 1 nM E2),human ER; at 3 μM,13% activation at 3 μM
same,IC25,human AR; [6],130 nM
same,REPmol (IC25),human AR; present study,0.84
same,IC50,human AR; read-out: IC50,290 nM
same,"antiandrogenic activity, PC3",AR [3]; [7],+
"c1ccc2cc3c(cc2c1)-c1cccc2cccc-3c12 [B[k]FA, benzo[k]fluoranthene]","REPmol, U2OS",AR [2]; [8],2.6 ^f
same,"antiandrogenic activity, PC3",AR [3]; [7],+
"c1ccc2c(c1)ccc1c3ccccc3ccc21 [Chr, Chrysene]","REPmol, T47D",ER [4],U (key: U: < 10% response of 1 nM E2; nd: not detected)
same,"antiandrogenic activity, PC3",AR [3],+
"c1ccc2c(c1)cc1ccc3c4ccccc4cc4ccc2c1c43 [DB[a,h]P, dibenzo[a,h]pyrene]","REPmol, U2OS",AR [2]; [9],<0.003 ^e
same,"REPmol, U2OS",ER [5],2 × 10^−5
same,antiandrogenic activity (in words),human AR; present study,not observed; also recorded: inactive
"c1ccc2c(c1)cc1ccc3cc4ccccc4c4ccc2c1c34 [DB[a,i]P, dibenzo[a,i]pyrene]",activation (level of the response to 1 nM E2),human ER; at 3 μM,14% activation at 3 μM
same,antiandrogenic activity (in words),human AR; present study,not observed; also recorded: inactive
"c1ccc2c(c1)cc1ccc3cccc4c5ccccc5c2c1c34 [DB[a,l]P, dibenzo[a,l]pyrene]",EC50,human ER,U (key: U: < 10% response of 1 nM E2; nd: not detected)
same,REPmol (EC50),human ER,U (key: U: < 10% response of 1 nM E2; nd: not detected)
same,IC25,human AR; [6],3600 nM
same,REPmol (IC25),human AR; present study,0.037
same,IC50,human AR; read-out: IC50,8900 nM
"c1ccc2c(c1)-c1cccc3cccc-2c13 [FA, fluoranthene]","REPmol, VM7",ER [1],4.1 × 10^−7
same,"REPmol, U2OS",AR [2]; [8],0.96 ^f
"CC(C)C(=O)Nc1ccc([N+](=O)[O-])c(C(F)(F)F)c1 [Flutamide, reference compound]","REPmol, U2OS","AR [2]; the standard itself, no reference given",1
"c1ccc2c(c1)-c1ccc3ccc4cccc5cc-2c1c3c45 [IdP, indeno[1,2,3-cd]pyrene]","REPmol, U2OS",AR [2]; [8],0.35 ^f
same,"antiandrogenic activity, PC3",AR [3]; [7],+
"O=C1c2ccccc2C(=O)c2cc3ccccc3cc21 [NCQ, 5,12-naphthacenequinone]",EC50,human ER,U (< 10% response of 1 nM E2)
same,REPmol (EC50),human ER,U (< 10% response of 1 nM E2)
same,antiandrogenic activity (in words),human AR; present study,not observed
"O=C1C=Cc2ccccc2C1=O [NphQ, 1,2-naphthoquinone]",antiandrogenic activity (in words),human AR; present study,not observed
"O=C1C=Cc2cccc3cccc1c23 [PhO, Phenalenone]",EC50,human ER,U ^j (< 10% response of 1 nM E2)
same,REPmol (EC50),human ER,U (< 10% response of 1 nM E2)
same,IC25,human AR; [6],840 nM
same,REPmol (IC25),human AR; present study,0.12
same,IC50,human AR; read-out: IC50,2000 nM
"c1ccc2c(c1)ccc1ccccc12 [Phe, phenanthrene]","REPmol, VM7",ER [1],1.2 × 10^−6
same,"REPmol, U2OS",AR [2]; [9],0.1 ^e
same,"REPmol, U2OS",ER [5],<3 × 10^−9
cyclopenta[cd]pyrene [CPP],IC25,human AR; [6],580 nM
same,IC50,"human AR; present study, 24 h exposure with 100 pM DHT (EC50 level), read-out: IC50",1300 nM
same,REPmol (IC25),human AR; present study,0.14
